According to PubChem BioAssay (NCI):
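The concentration for 50% growth inhibition is given as GI50. TGI denotes the concentration required for complete inhibition of growth.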

How the values were obtained:
Assay in all cases: NCI-60 cell line screen, 384-well format
[1] = tested on: DU-145 prostate
[2] = tested on: SK-MEL-28 melanoma
[3] = tested on: M14 melanoma
[4] = tested on: IGROV1 ovarian
[5] = tested on: MCF7 breast
[6] = tested on: 786-0 renal
[7] = tested on: K-562 leukemia
[8] = tested on: HS 578T breast
[9] = tested on: MDA-MB-468 breast
[10] = tested on: COLO 205 colon
[11] = tested on: SK-OV-3 ovarian
[12] = tested on: UACC-62 melanoma
[13] = tested on: SW-620 colon
[14] = tested on: MOLT-4 leukemia
[15] = tested on: OVCAR-4 ovarian
[16] = tested on: RXF 393 renal
[17] = tested on: CAKI-1 renal
[18] = tested on: NCI-H460 NSCLC
[19] = tested on: KM12 colon
[20] = tested on: MDA-MB-231 breast
[21] = tested on: U251 glioblastoma
[22] = tested on: UO-31 renal
[23] = tested on: SNB-75 CNS
[24] = tested on: SNB-19 CNS
[25] = tested on: HCT-15 colon
[26] = tested on: EKVX NSCLC
[27] = tested on: OVCAR-5 ovarian
[28] = tested on: SN12C renal
[29] = tested on: LOX IMVI melanoma

CCN(CC)CCCCNc1ncc2cc(-c3cc(OC)cc(OC)c3)c(NC(=O)NC(C)(C)C)nc2n1
GI50 [1]: 7.2 µM | TGI [1]: 19.5 µM | GI50 [2]: 3.23 µM | TGI [2]: 8.34 µM | GI50 [3]: 1900 nM | TGI [3]: 3.82 µM | GI50 [4]: 3.56 µM | TGI [4]: 16 µM | GI50 [5]: 4.04 µM | TGI [5]: 16.2 µM | GI50 [6]: 3.05 µM | TGI [6]: 12.7 µM | GI50 [7]: 2560 nM | TGI [7]: 6.17 µM | GI50 [8]: 2280 nM | TGI [8]: 9.13 µM | GI50 [9]: 3.81 µM | TGI [9]: 10.1 µM | GI50 [10]: 7.16 µM | TGI [10]: 19.4 µM | GI50 [11]: 3.77 µM | TGI [11]: 14 µM | GI50 [12]: 5.33 µM | TGI [12]: 17 µM | GI50 [13]: 11.3 µM | TGI [13]: 23.4 µM | GI50 [14]: 1640 nM | TGI [14]: 3.26 µM | GI50 [15]: 13.6 µM | TGI [15]: 26.6 µM | GI50 [16]: 1730 nM | TGI [16]: 5.85 µM | GI50 [17]: 1650 nM | TGI [17]: 10.9 µM | GI50 [18]: 3.57 µM | TGI [18]: 12.6 µM | GI50 [19]: 5.32 µM | TGI [19]: 17.3 µM | GI50 [20]: 9.09 µM | TGI [20]: 21.1 µM | GI50 [21]: 3.84 µM | TGI [21]: 12.6 µM | GI50 [22]: 8.38 µM | TGI [22]: 20.7 µM | GI50 [23]: 613 nM | TGI [23]: 13.8 µM | GI50 [24]: 13.6 µM | TGI [24]: 26.7 µM | GI50 [25]: 3.02 µM | TGI [25]: 11.6 µM | GI50 [26]: 5.43 µM | TGI [26]: 17.5 µM | GI50 [27]: 9.74 µM | TGI [27]: 21.6 µM | GI50 [28]: 4.16 µM | TGI [28]: 15 µM | GI50 [29]: 2460 nM | TGI [29]: 6.58 µM
